Consider one compound from patent US6531148B1, “Therapeutic agents” (Takara Shuzo Co., Ltd., priority 1998, dated 2003).

In experiment [1] the target is T1, α-glucosidase from rat small intestine mucous membrane (Rattus norvegicus, UniProt P23739).
T1 construct: relative activity; other: substrate Sucrose, DGE 0.2 mM; control without DGE = 100%; relative activity; other: substrate Sucrose, DGE 0.5 mM; other: substrate Sucrose, DGE 1.0 mM; other: substrate Sucrose, DGE 2.0 mM; other: for sucrose, Dixon
The experiment can be described thus: α-Glucosidase inhibition test (crude enzyme from rat small intestine). Type of experiment: biochemical. Conditions: for relative activity: substrate Sucrose, control without DGE = 100%. The protocol:
(2) A crude enzyme preparation of α-glucosidase from rat small intestine mucous membrane [prepared according to the method as described in Arne Dahlqvist, Anal. Biochem., 7:18-25 (1964)] was used to measure the activity of inhibiting α-glucosidase of DGE as follows.
For the enzymatic reaction, 80 μl of a solution of sucrose, maltose, treharose or soluble starch as a substrate in 10 mM phosphate buffer (pH 7.0) buffer at a final concentration of 100 mM (0.5% for soluble starch) was added to 10 μl of a test sample solution appropriately diluted with the same buffer. 10 μl of the crude enzyme solution prepared from rat small intestine was added thereto. The mixture was reacted at 37° C. for 20 minutes.
The enzymatic reaction was assessed by adding 3 ml of a reagent for glucose measurement (Wako Pure Chemical Industries) to the reaction mixture, reacting at 37° C. for 5 minutes and then measuring the absorbance at 505 nm as the glucose content in the mixture.
The inhibitory activity of DGE on the digestion of each substrate by α-glycosidase was measured using DGE at four different concentrations according to the above-mentioned method. The activity of inhibiting α-glycosidase was expressed as a relative activity (%) defining the activity of the control without DGE as 100%.

For experiment [2], the system named is human FGF-β. Briefly: Cytokine production from DSEK cells (ELISA). The conditions noted are these: DSEK culture supernatant at 24 or 72 hours. It counts as cell-based. On the procedure:
(§1) 150 μl/well of culture supernatant was recovered from the DSEK cell culture at 24 or 72 hours. The effects of DGE on the production (expression) of cytokines (human TGF-β, human FGF-β, human IL-1α and human IL-10) from the cell were determined using ELISA kits specific for the respective cytokines (from Intergen for human FGF-β and human IL-10; and from Promega for human IL-1α and human TGF-β).
A general note: An ELISA detects its analyte on a solid surface through an enzyme-linked reagent.

Experiment [3] concerns human IL-1α. Briefly: Cytokine production from DSEK cells (ELISA). Type of experiment: cell-based. The conditions noted are these: DSEK culture supernatant at 24 or 72 hours. On the procedure:
as §1

The subject of experiment [4] is human IL-10. The experiment can be described thus: Cytokine production from DSEK cells (ELISA). Type of experiment: cell-based. The conditions noted are these: DSEK culture supernatant at 24 or 72 hours. The protocol: as §1
In experiment [5] the test system is human TGF-β. The experiment can be described thus: Cytokine production from DSEK cells (ELISA). The conditions noted are these: DSEK culture supernatant at 24 or 72 hours. Type of experiment: cell-based. On the procedure: as §1

T1 sequence (P23739 whole entry): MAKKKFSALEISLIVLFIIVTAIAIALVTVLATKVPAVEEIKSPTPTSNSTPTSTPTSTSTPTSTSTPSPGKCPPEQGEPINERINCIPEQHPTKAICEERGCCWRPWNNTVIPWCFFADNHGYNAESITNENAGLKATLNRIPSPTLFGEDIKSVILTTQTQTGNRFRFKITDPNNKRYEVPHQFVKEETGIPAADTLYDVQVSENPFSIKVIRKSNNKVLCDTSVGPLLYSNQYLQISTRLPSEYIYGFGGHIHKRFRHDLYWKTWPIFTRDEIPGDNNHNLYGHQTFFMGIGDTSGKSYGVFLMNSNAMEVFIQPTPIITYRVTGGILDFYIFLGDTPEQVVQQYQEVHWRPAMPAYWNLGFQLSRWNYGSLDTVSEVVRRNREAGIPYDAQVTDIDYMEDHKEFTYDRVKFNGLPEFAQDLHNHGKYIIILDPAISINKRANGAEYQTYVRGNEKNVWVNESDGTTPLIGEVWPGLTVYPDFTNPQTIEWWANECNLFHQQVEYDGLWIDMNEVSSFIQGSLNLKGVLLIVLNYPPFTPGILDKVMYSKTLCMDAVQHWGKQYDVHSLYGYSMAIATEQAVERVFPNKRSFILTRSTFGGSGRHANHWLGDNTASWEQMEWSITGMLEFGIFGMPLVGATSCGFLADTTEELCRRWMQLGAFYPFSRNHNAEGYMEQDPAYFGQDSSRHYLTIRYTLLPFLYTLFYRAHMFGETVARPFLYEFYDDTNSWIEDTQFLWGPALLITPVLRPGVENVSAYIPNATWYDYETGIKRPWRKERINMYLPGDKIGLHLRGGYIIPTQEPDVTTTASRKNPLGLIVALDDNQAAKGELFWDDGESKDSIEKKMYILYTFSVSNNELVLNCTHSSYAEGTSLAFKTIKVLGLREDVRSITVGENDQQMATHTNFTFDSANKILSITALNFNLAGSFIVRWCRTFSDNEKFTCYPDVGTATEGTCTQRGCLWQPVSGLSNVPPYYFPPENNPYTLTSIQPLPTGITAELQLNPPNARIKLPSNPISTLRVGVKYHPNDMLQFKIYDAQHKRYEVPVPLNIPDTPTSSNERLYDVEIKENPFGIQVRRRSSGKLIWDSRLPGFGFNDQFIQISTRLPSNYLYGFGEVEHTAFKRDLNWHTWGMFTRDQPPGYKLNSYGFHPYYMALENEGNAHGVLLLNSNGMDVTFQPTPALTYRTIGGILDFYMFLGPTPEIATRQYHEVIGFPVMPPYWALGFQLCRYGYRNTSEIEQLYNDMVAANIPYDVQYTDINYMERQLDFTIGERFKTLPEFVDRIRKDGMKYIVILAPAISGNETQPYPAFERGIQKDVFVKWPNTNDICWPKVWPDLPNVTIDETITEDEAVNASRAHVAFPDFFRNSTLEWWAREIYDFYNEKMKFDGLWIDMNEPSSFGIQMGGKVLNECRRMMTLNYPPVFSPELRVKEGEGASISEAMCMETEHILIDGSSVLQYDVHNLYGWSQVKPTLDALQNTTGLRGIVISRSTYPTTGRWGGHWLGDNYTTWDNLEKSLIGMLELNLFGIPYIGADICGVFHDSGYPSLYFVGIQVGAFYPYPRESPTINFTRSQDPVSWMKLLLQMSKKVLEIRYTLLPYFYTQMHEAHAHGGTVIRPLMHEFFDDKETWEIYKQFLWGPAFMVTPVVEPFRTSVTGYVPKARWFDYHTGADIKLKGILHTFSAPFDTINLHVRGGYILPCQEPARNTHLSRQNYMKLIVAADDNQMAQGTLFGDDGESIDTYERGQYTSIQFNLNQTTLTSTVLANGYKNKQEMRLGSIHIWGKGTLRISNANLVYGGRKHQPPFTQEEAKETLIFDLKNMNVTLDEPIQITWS

Take `O=C1C=CC(CO)OC1O` [DGE, L-glycero-1,5-epoxy-1αβ,6-dihydroxy-cis-hex-3-en-2-one]: in experiment [1], the “activity of inhibiting α-glycosidase with sucrose as a substrate compared with maltose or the like” value is recorded as “exhibited a higher activity of inhibiting α-glycosidase”. The Ki in experiment [1] (for sucrose, Dixon plot, read-out: inhibition constant (Ki)) stood at 6 mM. In addition, the relative activity is 91% in experiment [1] (DGE 0.2 mM), 92% in experiment [1] (DGE 0.5 mM), 83% in experiment [1] (DGE 1.0 mM) and 71% in experiment [1] (DGE 2.0 mM). Besides, the “production of human FGF-β” value in experiment [2] is “inhibiting the production”. Also, the “production of human IL-1α” value in experiment [3] was “inhibiting the production”. The “production of human IL-10” value in experiment [4] is on record as “enhancing the production”. Besides, in experiment [5], the “production of human TGF-β” value is “enhancing the production”.

The term Ki denotes a dissociation constant, usually derived from enzyme kinetics or from competition with a known ligand.
